The record followed here is patent publication US8445712B2, “Phospholipid derivative and pH-responsive liposomes” (NOF Corporation, priority 2009, dated 2013).

The nature of this data set: Measurement test of pH-sensitiveness of liposome (release of enclosed pyranine/DPX at a given pH). It is filed as physicochemical. The settings on record: Example 15 (Table 2) compared with Example 19 (Table 3); 11 mol % derivative in EYPC liposome. How it is done: Using the liposomes prepared in Examples 5-13 and Comparative Example 1, pH-sensitiveness measurement tests were performed.
To the liposome solution obtained in Example 5 was added phosphate buffered saline (hereinafter to be indicated as “PBS”) to adjust the lipid concentration of the liposome to 1.6 mmol/l. The PBS (2469 μl) adjusted to a given pH with 1N hydrochloric acid was placed in a quartz cell, a liposome dispersion (31 μl) was added thereto at 37° C. to adjust the lipid concentration to 20 μmol/l. After incubation at 37° C. for 15 min, fluorescence intensity (F15min) was measured. In addition, 10% aqueous Triton X-100 (manufactured by Sigma-Aldrich Japan Co. Ltd.) solution (25 μl) was added thereto, and the mixture was stirred, and the fluorescence intensity (Fmax) was measured.
The release (%) was calculated by the following formula.
[formula] F15min: fluorescence intensity at 15 min after liposome addition F0: fluorescence intensity at t=0 by measurement with PBS at pH 7.4 Fmax: fluorescence intensity after addition of Triton

Turning to “Octaglycerolglutaryl Distearylphosphatidylethanolamine 1,2-Cyclohexanedicarboxylic Acid Derivative [DSPE-CHexPG8G]”, the “pH sensitive property (comparison)” value was “stronger pH sensitive property”.
